Here are results for one compound from patent US20100184601A1, “Method and Means Relating to Multiple Herbicide Resistance in Plants” (University of Durham, priority 2007, published 2010).

This experiment relates to AmGSTL1. The experiment in a line: Effect of inhibitors on activity of recombinant black-grass AmGSTL (thiol transferase). It is filed as biochemical, black-grass (Alopecurus myosuroides). The following applies: 0.1 mM inhibitor; recombinant enzyme.

As to `O=C1O/C(=C/Br)CCC1c1cccc2ccccc12` (stereo not shown) [BEL, Bromoenol lactone], the “inhibition of AmGSTL1 activity” value was “totally inhibited”.
